Data on seven compounds can be found in patent publication US12157713B2, “Conjugated oligoelectrolytes as antimicrobial agents” (Nanyang Technological University, priority 2018, dated 2024).

Assay [1] deals with Pseudomonas aeruginosa (PAO1) biofilm. Put plainly: Anti-biofilm assay (MBEC plate, crystal violet). The class given is cell-based. The note with it: P. aeruginosa PAO1 biofilm, 1 hour challenge in M9GC. How it is done:
Pseudomonas aeruginosa (PAO1) was grown in Luria-Bertani (LB) broth under shaking (200 rpm) at 37° C. for 16-18 hours. The overnight culture was diluted to 1:200 in M9GC media (M9 medium supplemented with glucose and casamino acids), and 200 μL of diluted culture was added to each well of MBEC plate (Innovotech, Canada). After incubating at 37° C. for 5 hours under shaking (200 rpm), biofilm was formed on the pegs of the MBEC plate. The pegs were then rinsed with 1× phosphate buffered saline (PBS) solution (200 μL per well), and exposed to a two-fold dilution series of COE in M9GC media (200 μL per well). The challenge plate was incubated at 37° C. for 1 hour under shaking (200 rpm), and then the pegs were washed using 200 μL PBS before being dipped into 180 μL 0.1 wt. % crystal violet aqueous solution. After incubating at room temperature for 15 minutes, the pegs were rinsed with PBS twice and transferred to a plate containing 200 μL absolute ethanol in each well for 15 minutes. The biofilm mass was quantified by measuring the absorption of crystal violet/ethanol solution at 550 nm. The minimum biofilm dispersal concentration (MBDC) values were determined as the lowest COE concentration at which biofilm attached on the peg was completely dispersed. The results were repeated in triplicate.

Assay [2] concerns Cryptococcus neoformans var. grubii H99; ATCC 208821. The experiment in a line: Single-dose growth inhibition, Cn. The class given is cell-based. The note with it: ATCC208821, 32 μg/mL single dose, n=2, read-out: Growth inhibition Cn. How it is done: (§1) Growth inhibition of C. albicans was determined by measuring the absorbance at 530 nm (OD530), while the growth inhibition of C. neoformans was determined by measuring the difference in absorbance between 600 and 570 nm (OD600-570), after the addition of resazurin (0.001 wt. % final concentration) and incubation at 35° C. for additional 2 hrs. The absorbance was measured using a Biotek Synergy HTX plate reader. The relative growth inhibition was calculated for each well, relative to that determined from a negative control (media only) and positive control (bacteria without inhibitors) on the same plate as references. A single dose of 32 μg/mL of COE (final concentration) was used for each test.
(§2) Percentage growth inhibition of an individual sample was calculated based on growth in a reference well determined from negative controls (media only) and positive controls (bacterial/fungal media without inhibitors). Negative inhibition values indicate that the growth rate (or OD600) is higher compared to the reference growth (bacteria/fungi only, set to 0% inhibition). The growth rates for all bacteria and fungi may vary at −/+10%, which were within the reported normal distribution of bacterial/fungal growth. Any significant variations (or outliers/hits) were identified by the modified Z-Score, and the active compounds were selected by a combination of inhibition values and Z-Score.
(§3) A M(i) value of >|2.5| (absolute) would classify the sample as outliers or hits. Active samples were denoted as compounds with inhibition values equal to or above 80% and absolute Z-Score above |2.5| for either replicate (n=2 on different plates). Partial active samples were denoted as compounds with inhibition values from 50% to <80%, or absolute Z-Score below |2.5|.

Assay [3] deals with Staphylococcus aureus 25923. The experiment in a line: MIC against S. aureus 25923. It is filed as cell-based. The protocol:
(§4) The respective minimum inhibition concentration (MIC) of each COE molecule was determined using a broth microdilution method. Briefly, COEs were diluted via a 2-fold dilution series in 100 μL of either Muller Hinton Broth (MHB) for E. coli and S. aureus or Brain Heart Infusion Broth (BHI) for E. faecalis in a 96-well plate to achieve the desired final concentration. Subsequently, each well was inoculated with 100 μL of 1×10^6 colony forming units (CFU) mL^−1 of the respective microorganism in MHB for E. coli or BHI for E. faecalis to achieve an inoculum density of 5×10^5 CFU mL^−1. The plates were then incubated at 37° C. with shaking (200 rpm) for 18 hrs. […] The results were obtained in triplicate.
The antimicrobial effects of COE-D62N and COE-D82N were also tested on the Gram-positive Staphylococcus aureus 25923 and Methicillin-resistant Staphylococcus aureus(MRSA BAA-40), in comparison with vancomycin (FIG. 5b).

Assay [4] concerns Acinetobacter baumannii ATCC 19606. Put plainly: Single-dose growth inhibition, Ab. The note with it: ATCC19606, 32 μg/mL single dose, n=2, read-out: Growth inhibition Ab. It is filed as cell-based. How it is done: (§5) Inhibition of bacterial growth was determined by measuring the absorbance at 600 nm (OD600), using a Tecan M1000 Pro monochromator plate reader. Growth inhibition was calculated for each well, relative to the reference growths determined from a negative control (media only) and positive control (bacteria without inhibitors) incubated in the same plate. A single dose of 32 μg/mL of COE (final concentration) was used for each test.
as §2, §3

For assay [5], the system named is Klebsiella pneumoniae MDR ATCC 700603. The experiment in a line: Single-dose growth inhibition, Kp. Particulars: ATCC700603, 32 μg/mL single dose, n=2, read-out: Growth inhibition Kp. The class given is cell-based. The protocol: as §5, §2, §3
The subject of assay [6] is Pseudomonas aeruginosa ATCC 27853. Put plainly: Single-dose growth inhibition, Pa. It is filed as cell-based. Particulars: ATCC27853, 32 μg/mL single dose, n=2, read-out: Growth inhibition Pa. The protocol:
as §5, §2, §3

Assay [7] relates to Candida albicans ATCC 90028. The experiment in a line: Single-dose growth inhibition, Ca. It is filed as cell-based. Particulars: ATCC90028, 32 μg/mL single dose, n=2, read-out: Growth inhibition Ca. The protocol: as §1, §2, §3
Assay [8] relates to Escherichia coli FDA control ATCC 25922. The experiment in a line: Single-dose growth inhibition, Ec. It is filed as cell-based. The note with it: ATCC25922, 32 μg/mL single dose, n=2, read-out: Growth inhibition Ec. How it is done:
as §5, §2, §3

In assay [9] the test system is organism classes (Gram-negative, Gram-positive and fungi). Put plainly: Single-dose screening summary by organism class. The class given is cell-based. Particulars: 32 μg/mL; 0 = no activity. The protocol: as §2
Z-Score analysis was carried out to investigate outliers or hits among the samples. The Z-Score was calculated based on the sample population using a modified Z-Score method which accounts for possible skewed sample population. The modified method uses median and MAD ([…]) instead of average and standard deviation, and a scaling factor (Iglewicz, B. & Hoaglin, D. C. Volume 16: How to Detect and Handle Outliers. The ASQC Basic Reference in Quality Control: Statistical Techniques, 1993). The equation to calculate the modified Z-Score value is as follow: […]
as §3

The next assay concerns E. coli K12. Put plainly: MIC by broth microdilution against E. coli K12. The class given is cell-based. The note with it: Escherichia coli, K12; broth microdilution, MHB, 18 hrs; read-out: MIC against E. coli K12. How it is done:
as §4
The MIC values of COE-D4, COE-D6 and COE-D8 against the reference strain E. coli K12, pathogenic E. coli UT189, and the Gram positive pathogen Enterococcus faecalis OG1RF were determined using a broth microdilution method as described in the general method above. The MICs for E. coli K12 were determined to be 128, 16, and 4 μg mL^−1 for COE-D4, COE-D6, and COE-D8, respectively (FIG. 5a). […] This is not surprising as these two organisms differ in the capsular polysaccharides that they expressed, which are known to hinder the uptake of antimicrobials and mitigate their potency (M. A. Campos, et al., Infect. Immun. 2004, 72, 7107-7114). A K-type capsid comprising α2-8-linked sialic acid is excreted by UT189 and is known to be an important virulence factor for this organism (C. Whitfield, et al., Mol. Microbiol. 1999, 31, 1307-1319; G. G. Anderson, et al., Infect. Immun. 2010, 78, 963-975).
A general note: In broth dilution the organism is exposed to a series of concentrations in liquid medium.

Assay [10] has as its system Staphylococcus aureus MRSA ATCC 43300. Put plainly: Single-dose growth inhibition, Sa. The class given is cell-based. The note with it: 32 μg/mL single dose, n=2, read-out: Growth inhibition Sa. The protocol:
as §5, §2, §3

The next assay has as its system E. faecalis. Particulars: literature (Tran et al. 2013); cited from earlier work.
The subject of assay [11] is multidrug-resistant Gram-negative bacteria. The note with it: literature (Falagas et al. 2005); cited from earlier work.

Take `C[N+](C)(C)CC[N+](C)(C)CCCCCCOc1ccc(/C=C/c2ccc(/C=C/c3ccc(OCCCCCC[N+](C)(C)CC[N+](C)(C)C)cc3)cc2)cc1` [COE-T62]: the “Minimum biofilm dispersal concentration” value in assay [1] came to 8 µg/mL. Also, the inhibition (commonly the relative decrease from the control value, in per cent) at 32 µg/mL is above 80% in assay [2]; below 50% in [4]; below 50% in [5]; below 50% in assay [6]; above 80% in [7]; above 80% in [8]. Moreover, in assay [10], the inhibition at 32 µg/mL is above 80%. Further, the MIC (as a rule, the lowest concentration that inhibits growth of the organism) in [3] amounted to 2 µg/mL; in the assay with E. coli K12, 16 µg/mL. The “Activity: number of organism classes the compound has been found active against” value in assay [9] is on record as 3.

In the case of `CC(C)(O/N=C(\C(=O)N[C@@H]1C(=O)N2C(C(=O)[O-])=C(C[n+]3ccccc3)CS[C@H]12)c1csc(N)n1)C(=O)O` [Ceftazidime], the “Minimum biofilm dispersal concentration” value in assay [1] was above 512 µg/mL.

On to `O=C(O)c1cn(C2CC2)c2cc(N3CCNCC3)c(F)cc2c1=O` [Ciprofloxacin], for which the “Minimum biofilm dispersal concentration” value in [1] is above 512 µg/mL.

As to `NC[C@H]1O[C@H](O[C@H]2[C@H](O)[C@@H](O[C@H]3O[C@H](CO)[C@@H](O)[C@H](N)[C@H]3O)[C@H](N)C[C@@H]2N)[C@H](N)C[C@@H]1O` [Tobramycin], the “Minimum biofilm dispersal concentration” value in assay [1] was above 512 µg/mL.

In the case of `CCCCCCCCCC(=O)N[C@@H](Cc1c[nH]c2ccccc12)C(=O)N[C@H](CC(N)=O)C(=O)N[C@@H](CC(=O)O)C(=O)N[C@@H]1C(=O)NCC(=O)N[C@@H](CCCN)C(=O)N[C@@H](CC(=O)O)C(=O)N[C@H](C)C(=O)N[C@@H](CC(=O)O)C(=O)NCC(=O)N[C@H](CO)C(=O)N[C@@H]([C@H](C)CC(=O)O)C(=O)N[C@@H](CC(=O)c2ccccc2N)C(=O)O[C@@H]1C` [daptomycin], in the assay on E. faecalis, the “MIC against E. faecalis in brain heart infusion media” value is on record as “around 3 μg mL^−1”.

Take Colistin: the “Minimum biofilm dispersal concentration” value in assay [1] was 4 µg/mL. In assay [11], the “MIC against multidrug-resistant Gram-negative bacteria (in general)” value was at most 4 µg/mL.

As for Gentamicin, the “Minimum biofilm dispersal concentration” value in assay [1] was above 512 µg/mL.
